The values that follow come from patent US10865203B2, “Ligands selective to alpha 6 subunit-containing GABAA receptors and their methods of use” (UWM Research Foundation, Inc., priority 2015, dated 2020).

Molecules are shown by their SMILES. Entries after “also recorded” stand apart in the source; their conditions may differ.

The nature of data set [1]: Half-life in liver microsomes (Example 4). Format: in vitro ADME. As to conditions: rat and human liver microsomes, species of the value not stated. The source says:
Metabolic pathways that may disrupt the activity of compounds with aryl methoxy groups were investigated.

In data set [2] the test system is c-Fos-ir neurons in the TNC of Wistar rats. Description: Migraine model: capsaicin (i.c.)-induced neuronal activation in the TCC. Conditions: i.p., capsaicin 10 nmol i.c., 2 hours after. Format: in vivo, rat. On the procedure:
Intra-cisteral instillation of capsaicin. Under anesthesia with chloral hydrate (400 and 100 mg/kg, i.p., respectively, for inducing and maintaining), the rat received a midline skin incision from the occipital protuberance to the upper cervical area. After catheterization with a catheter (PE-10, SIMS Portex Ltd, Hythe, UK) inserted 3 mm deep into the cisterna magna, the rat was placed in a prone position for 6 h. Then, the capsaicin solution (10 nmol, 100 μL) was instilled through the catheter into the cisterna magna over 1 min. The rat was then placed in a reverse Trendelenburg position (−30 degrees) for 30 min in order to facilitate capsaicin distribution within the subarachnoid space, followed by the prone position for another 90 min. […]
Measurement of the total number of C-fos-ir neurons in the TCC. C-Fos-ir neurons, i.e., neurons with stained nuclei, were counted under a microscope (Olympus BX51, Essex, UK) by an observer blinded to the treatment group. […] The total number of c-Fos-ir TCC neurons were estimated based on the formular derived in our previous study (Fan et al., 2012): 16(N1+N2)/2+53(N2+N3)/2, where N1, N2, and N3 were the c-Fos-ir neuronal numbers measured at […] from the obex, respectively.

By half-life is commonly meant how long it takes for the measured level to halve. A higher half-life goes with slow loss. In turn, `COc1ccc(-n2nc3c4ccc(OC)cc4[nH]cc-3c2=O)cc1` [Compound 6, 7-Methoxy-2-(4-methoxyphenyl)-2,5-dihydro-3H-pyrazolo[4,3-c]quinolin-3-one] yielded a half-life in data set [1] of 2.92 h. Besides, the “number of c-Fos-ir neurons in the TNC induced by i.c. capsaicin” value in data set [2] is listed as “significantly decreased; also recorded: reduces”.
